Experimental data: patent US20060199978A1, “Compounds having serotonin 5-ht17 receptor antagonist activity and muscarinic m4 receptor agonist activity and their use in the treatment of psychotic disorders” (priority 2003, published 2006)
pKi: −log10 of the molar value. Read-outs that look alike come from different tables or passages of the source.

Columns and labels:
[1] = molecular target: T1, human 5-HT7 receptors (Homo sapiens, UniProt P34969); assay: 5-HT7 binding assay (3H-5CT); conditions: human 5-HT7 membrane, 3H-5CT 0.5 nM
T1 construct: purchased Euroscreen
T1 sequence (P34969 whole entry): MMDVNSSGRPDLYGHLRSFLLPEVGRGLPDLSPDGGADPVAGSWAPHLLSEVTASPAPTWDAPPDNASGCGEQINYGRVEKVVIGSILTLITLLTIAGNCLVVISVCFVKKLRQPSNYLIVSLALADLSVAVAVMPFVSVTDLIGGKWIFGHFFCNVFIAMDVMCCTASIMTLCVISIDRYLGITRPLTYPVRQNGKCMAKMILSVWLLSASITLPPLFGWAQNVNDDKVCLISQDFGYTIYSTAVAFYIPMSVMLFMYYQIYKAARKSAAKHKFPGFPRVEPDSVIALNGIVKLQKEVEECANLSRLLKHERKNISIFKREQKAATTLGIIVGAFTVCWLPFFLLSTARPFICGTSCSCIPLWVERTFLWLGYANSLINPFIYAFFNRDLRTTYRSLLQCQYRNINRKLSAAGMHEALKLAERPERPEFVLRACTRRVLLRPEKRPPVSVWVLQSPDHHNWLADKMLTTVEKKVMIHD
Experimental: The compounds of the present invention were screened for binding affinity using membranes containing stably expressed human M4 muscarinic receptors or human 5-HT7 receptors.
Total volume 200 μl/well. Membrane concentration—human 5-HT7 membrane (purchased from Euroscreen)—6 μg/ml; ^3H-5CT 0.5 nM; Sample conc. 10 nM-300 μM; 8OH-DPAT Displacement Curve—1 nM-3 μM. The plates are incubated at 20° C. for 120 minutes in the dark to avoid any photo degradation. Membranes are harvested by rapid filtration using a vacuum manifold under 700 mbar pressure. The plates are washed 3 times with 200 ul/well of ice-cold wash buffer. Plates are dried at 40° C. for 1 hour (Higher CPMs are obtained when the filters are dried) 100 μl scintillation fluid is added to each well and cpm determined using a Microbeta scintillation counter.

[2] = molecular target: T2, human M4 muscarinic receptors (Homo sapiens, UniProt P08173); assay: M4 binding assay (3H-NMS); conditions: human M4 membranes, 3H-NMS 0.25 nM
T2 construct: purchased NEN
T2 sequence (P08173 1-479): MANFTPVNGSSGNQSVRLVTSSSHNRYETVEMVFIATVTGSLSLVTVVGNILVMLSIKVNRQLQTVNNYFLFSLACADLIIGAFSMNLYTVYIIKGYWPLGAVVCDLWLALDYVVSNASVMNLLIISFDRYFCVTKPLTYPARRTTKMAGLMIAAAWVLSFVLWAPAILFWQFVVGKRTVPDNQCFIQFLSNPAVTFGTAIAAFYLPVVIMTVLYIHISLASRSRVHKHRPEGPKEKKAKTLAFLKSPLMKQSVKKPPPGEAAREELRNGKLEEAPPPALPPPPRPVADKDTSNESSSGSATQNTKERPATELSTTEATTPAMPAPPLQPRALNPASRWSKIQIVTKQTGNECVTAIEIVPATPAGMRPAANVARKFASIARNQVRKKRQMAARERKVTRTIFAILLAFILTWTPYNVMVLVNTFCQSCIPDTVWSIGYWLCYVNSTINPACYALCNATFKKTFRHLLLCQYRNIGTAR
Experimental: Total volume 200 μl/well. Membrane concentration—human M4 membranes (NEN)—8 μg/ml; ^3H-NMS 0.25 nM; Sample conc. 10 nM-300 μM; Atropine Displacement Curve—0.3 nM-1 μM.
The plates are incubated at 20° C. for 60 minutes in the dark to avoid any photo degradation. Membranes are harvested by rapid filtration using a vacuum manifold under 700 mbar pressure. The plates are washed 3 times with 200 ul per well of ice-cold wash buffer. Plates are dried at 40° C. for 1 hour, 100 μl scintillation fluid is added to each well and cpm determined using a Microbeta scintillation counter.

[3] = molecular target: T3, human D2 membrane (Homo sapiens, UniProt P14416); assay: D2 binding assay (3H-spiperone); conditions: 3H-spiperone 0.5 nM
T3 construct: purchased Euroscreen
T3 sequence (P14416 whole entry): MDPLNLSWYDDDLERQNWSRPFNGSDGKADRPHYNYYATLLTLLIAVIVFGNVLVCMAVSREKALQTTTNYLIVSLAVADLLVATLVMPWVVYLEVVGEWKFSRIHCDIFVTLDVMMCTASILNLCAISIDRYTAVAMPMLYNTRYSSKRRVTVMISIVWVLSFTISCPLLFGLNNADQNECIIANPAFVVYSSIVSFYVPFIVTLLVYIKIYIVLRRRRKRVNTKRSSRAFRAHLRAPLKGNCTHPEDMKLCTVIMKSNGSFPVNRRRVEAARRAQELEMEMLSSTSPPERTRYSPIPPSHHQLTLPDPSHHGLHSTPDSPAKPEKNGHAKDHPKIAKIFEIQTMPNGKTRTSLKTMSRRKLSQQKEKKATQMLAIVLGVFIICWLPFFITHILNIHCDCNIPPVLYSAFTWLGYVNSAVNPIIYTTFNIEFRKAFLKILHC
Experimental: Total volume 200 μl/well. Membrane concentration—human D2 membrane (purchased from Euroscreen)—10 μg/ml; ^3H-spiperone 0.5 nM; Sample conc. 10 nM-300 μM; Haloperidol Displacement Curve—1 nM-10 μM. The plates are incubated at 25° C. for 60 minutes in the dark to avoid any photo degradation.
Membranes are harvested by rapid filtration using a vacuum manifold under 700 mbar pressure. The plates are washed 3 times with 200 ul/well of ice-cold wash buffer. Plates are dried at 40° C. for 1 hour (Higher CPMs are obtained when the filters are dried). 100 μl scintillation fluid is added to each well and cpm determined using a Microbeta scintillation counter.

[4] = molecular target: T4, M4 muscarinic receptors (N1E-115 cells) (Mus musculus, UniProt P32211); assay: Homogenate assay for c-AMP production (PACAP-stimulated); type: biochemical; conditions: N1E-115 homogenate; for reduction of c-AMP levels (agonist activity): PACAP 0.1 nM stimulation
T4 construct: endogenous in cells; host or cells: mouse N1E-115 cells (homogenate)
T4 sequence (P32211 1-479): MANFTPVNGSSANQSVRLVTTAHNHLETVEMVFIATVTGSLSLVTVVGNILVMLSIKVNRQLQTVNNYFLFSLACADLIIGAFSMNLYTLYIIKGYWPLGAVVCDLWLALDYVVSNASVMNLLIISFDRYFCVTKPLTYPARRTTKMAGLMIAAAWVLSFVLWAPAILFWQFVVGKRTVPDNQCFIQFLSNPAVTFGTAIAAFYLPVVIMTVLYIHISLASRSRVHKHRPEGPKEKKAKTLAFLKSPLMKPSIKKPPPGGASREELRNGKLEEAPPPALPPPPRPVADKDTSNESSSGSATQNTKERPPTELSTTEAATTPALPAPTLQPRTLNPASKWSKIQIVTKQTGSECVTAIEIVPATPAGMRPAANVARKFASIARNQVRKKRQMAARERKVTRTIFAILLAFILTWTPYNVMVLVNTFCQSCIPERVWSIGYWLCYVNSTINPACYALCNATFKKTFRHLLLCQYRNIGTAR
Experimental: N1E-115 cells were harvested by scraping and placed in Ribolyser tubes on dry ice. Ice cold buffer (0.5 ml) containing 50 mM Tris HCl, 0.4 mM EDTA and 0.4 mM EGTA (pH 7.4) was added to the tubes. The tubes were then placed in a Ribolyser and shaken at 4 g for 20 sec. The homogenate was then transferred to eppendorf tubes and was then centrifuged at 19,700 g for 30 min at 4° C. The pellet was resuspended in ice cold 50 mM Tris HCl (pH7.4) at a concentration of 50 mg ml^−1 wet weight of tissue. The homogenate was stored in aliquots at −70° C. Protein concentrations of the homogenates were determined using a Bio-Rad protein determination kit. The assay was carried out in a final assay volume of 120 μl containing 50 mM Tris HCl (pH7.4), 5 mM MgCl2 50 μM GTP, 200 μM ATP, 120 μM sucrose, 0.4 mM EDTA, 0.4 mM EGTA, 200 μM ascorbic acid, 20 μM papaverine, 200 μM rolipram, 10 μM vinpocetine, 10 mM phosphocreatinine, 0.4 mM DTT, 100 nM WAY 100635, 1 μM propranolol, 36 μg bacitracin, 4.8 U creatine phosphokinase, 3.6 KIU aprotinin. Homogenate (1 mgml^−1) was preincubated with the test compound in ice cold assay buffer for 10 min. PACAP (0.1 nM) was then added to the tubes. The tubes were then incubated at 30° C. for 20 min and then at 99° C. for 5 min. Levels of c-AMP in the tubes were measured using the Amersham Pharmacia Biotech Biotrak c-AMP enzymeimmunoassay kit.

[5] = system: amphetamine-induced hyper-activity in rats; assay: amphetamine-induced hyperactivity in rats; type: in vivo, rat; conditions: for Line Crossings (mean ± S.E.): amphetamine control 111.6 ± 6.4
Experimental: Male Long Evans rats (190-280 g) in each group of five were used. Amphetamine (1.0 mg/kg i.p.) was dissolved in saline, and test compounds were dissolved or suspended in 0.5% hydroxypropylmethylcellulose (HPMC) solution. All the test compounds were injected intraperitoneally in a volume of 0.1 ml/100 g, and control rats were treated with the respective vehicle. The plastic open-field box (40×40×40(H) cm) was used to measure the locomotor activity of rats. The locomotor activity was expressed as the number of line crossings marked on the floor of the test box at 20 cm square. Individual rats were placed in the test box just after the injection of amphetamine, and were allowed to habituate there for 10 min. The line crossings were counted over 15 min thereafter. The behavioural observation was conducted on two rats simultaneously using two test boxes. Test compounds were pretreated 30 min before the injection of amphetamine.

[6] = system: apomorphine-induced deficits in PPI in rats; assay: apomorphine-induced deficits in prepulse inhibition (PPI); type: in vivo, rat; conditions: s.c. 25 minutes prior to apomorphine 0.5 mg/kg s.c.; Wistar rats
Text: Male Wistar rats (Japan SLC Inc., Shizuoka, Japan) were used. They were housed in a light, humidity and temperature controlled environment maintained on a 12-hour/12-hour light/dark schedule (light on at 7 am) with food and water provided ad libitum. Four startle chambers (SR-LAB, San Diego Instruments, San Diego, Calif.) were placed in a sound-attenuated room. Each chamber consisted of Plexiglas cylinder 8.8 cm in diameter resting on a 12.7×20.3 cm Plexiglas stand. Acoustic stimuli and background noise were presented via a Supertweeter mounted 24 cm above the Plexiglas cylinder. Startle magnitude was detected and recorded by a microcomputer and interface assembly (San Diego Instruments) as transduced cylinder movement via a piezoelectric device mounted below the Plexiglas stand.
One day before drug testing, all rats were exposed to a “matching” startle session. Data from this session were used to assign rats to balanced groups according to their startle responses. […] Each session was approximately 20 minutes and consisted of 5 minutes of 70-dB background followed by five trial types, PULSE ALONE trial: a 120-dB 50 ms noise burst, PREPULSE trials which consisted of 20 ms noise bursts 3, 5, 10 dB above 70-dB background noise followed 100 ms later by a 120-dB 40 ms noise burst, NOSTIM trial: 100 ms of response was recorded during periods where no stimulus was presented. […]

[7] = system: chronic PCP-treated rats; conditions: cited from earlier work
[8] = system: chronic PCP-treated rats; assay: LCGU (2-DG) in chronic PCP rat model

COc1cc2c(cc1OC)CN(/C=N/c1ccc3c(c1)C(O)CC3)CC2 (stereo not shown) [Compound 32] showed a pKi [1] of 6.40, a pKi [2] of 6.49 and a pKi [3] of under 3.52. For the same molecule, the “reduction of c-AMP levels (agonist activity)” value [4] was “able to reduce cAMP levels”, the “Line Crossings (mean ± S.E.)” value ([5]; dose 1 mg/kg, i.p.) was 98.8 ± 7.3 and the “Line Crossings (mean ± S.E.)” value ([5]; dose 3 mg/kg, i.p.) was 89.6 ± 13.3. For the same molecule, the “Line Crossings (mean ± S.E.)” value ([5]; dose 10 mg/kg, i.p.) was 45.6 ± 8.3, the “effect on amphetamine-induced hyperactivity” value ([5]; rats, i.p., 30 min before amphetamine) was “suppressed the hyperactivity in a dose-dependent manner” and the “ED50, suppression of amphetamine-induced hyperactivity” value ([5]; rats, amphetamine 1.0 mg/kg i.p., 95% confidence limits, estimated) was 8.1 (95% confidence limits; 4.4-15) mg/kg, i.p.
For OC1CCc2ccc(/N=C/N3CCc4ccccc4C3)cc21 (stereo not shown) [Compound 34, 6-[(3,4-dihydro-1H-isoquinolin-2-ylmethylene)-amino]-indan-1-ol], the pKi [1] was 5.57, the pKi [2] was 5.55 and the pKi [3] was under 3.52.
With CCCSc1nsnc1[C@H]1CN2CCC[C@H]1C2 [PTAC, (5R,6R)6-(3-propylthio-1,2,5-thiadiazol-4-yl)-1-azabicyclo(3.2.1)octane] the “effect on apomorphine-induced disruption of PPI” value [6] was “Neither PTAC nor SB25871 alone affect the disruption induced by apomorphine”.
With Cc1cccc(S(=O)(=O)N2CCC[C@@H]2CCN2CCC(C)CC2)c1 [SB258741, R-(+)-1-(toluene-3-sulfonyl)-2-[2-(4-methylpiperidin-1-yl)ethyl]pyrrolidine] the “effect on apomorphine-induced disruption of PPI” value [6] was “Neither PTAC nor SB25871 alone affect the disruption induced by apomorphine”.
With CN1[C@@H]2CC[C@H]1C[C@@H](OC(=O)C(CO)c1ccccc1)C2 (stereo partly shown) [atropine] the “blockade of the cAMP-reducing effect of Compound 32” value [4] was “the effect was blocked”.
In the case of O=C(CCCN1CCC(O)(c2ccc(Cl)cc2)CC1)c1ccc(F)cc1 [haloperidol], the “effect on PCP-induced hypofunction” value ([7]; auditory structures, reported previously (Cochran et al., 2003)) is given as “reversed the PCP-induced hypofunction”, the “effect on PCP-induced metabolic hypofunction” value ([7]; prelimbic region of the prefrontal cortex, shown previously (Cochran et al., 2003)) is given as “failed to reverse” and the “effect on PCP-induced hypofunction” value ([7]; reticular nucleus of the thalamus, shown previously (Cochran et al., 2003)) is given as “failed to reverse”. For the same molecule, the “effect on PCP-induced metabolic hypofunction (LCGU)” value ([8]; prelimbic region of the prefrontal cortex, chronic treatment) was “not by haloperidol or clozapine”, the “effect on PCP-reduced local glucose utilisation” value ([8]; ventral lateral lemniscus, chronic treatment (FIG. 4)) was “only partially restores the hypofunction” and the “effect on PCP-reduced local glucose utilisation” value ([8]; ventral reticular thalamic nucleus, chronic treatment (FIG. 3)) was “not by haloperidol or clozapine”.
With O=C1CCCN1CC#CCN1CCCC1 [oxotremorine] the “reduction of c-AMP levels (agonist activity)” value [4] was “showed the ability to reduce c-AMP levels”.
